Results reported in ChEMBL document CHEMBL4842332, “Eriocitrin Contained in Lemon Peel Ameliorates Disuse Muscle Atrophy by Suppressing the Expression of Atrogin-1 and MuRF-1 in Denervated Mice” (2021).
The source made the active and inactive calls. The rule behind the calls is not given here.

Tests used:
Mus musculus [1] = species: Mus musculus; test: Downregulation of MuRF-1 mRNA expression in denervated C57BL/6NCrSlc mouse by RT-PCR analysis; assay type: functional
Mus musculus [2] = species: Mus musculus; test: Effect on PGC1a mRNA expression in denervated C57BL/6NCrSlc mouse by RT-PCR analysis; assay type: functional
Mus musculus [3] = species: Mus musculus; test: Toxicity in denervated C57BL/6NCrSlc mouse assessed as effect on body weight (reference value: 25.74 g); assay type: functional
Mus musculus [4] = species: Mus musculus; test: Effect of PPARdelta mRNA expression in denervated C57BL/6NCrSlc mouse by RT-PCR analysis; assay type: functional, organism-based
Mus musculus [5] = species: Mus musculus; test: Upregulation of IGF-1 mRNA expression in denervated C57BL/6NCrSlc mouse by RT-PCR analysis; assay type: functional
Mus musculus [6] = species: Mus musculus; test: Antioxidant activity in denervated C57BL/6NCrSlc mouse assessed as […] in lipid peroxide level in gastrocnemius muscle measured after 30 mins; assay type: functional, organism-based
Mus musculus [7] = species: Mus musculus; test: Downregulation of FOXO1 mRNA expression in denervated C57BL/6NCrSlc mouse by RT-PCR analysis; assay type: functional
Mus musculus [8] = species: Mus musculus; test: Suppression of denervation-induced gastrocnemius muscle weight loss in C57BL/6NCrSlc mouse; assay type: functional, organism-based
Mus musculus [9] = species: Mus musculus; test: Upregulation of SOD1 mRNA expression in denervated C57BL/6NCrSlc mouse by RT-PCR analysis; assay type: functional
Mus musculus [10] = species: Mus musculus; test: Antioxidant activity in denervated C57BL/6NCrSlc mouse assessed as […] in GSSG/GSH ratio in gastrocnemius muscle measured after 30 mins; assay type: functional, organism-based
Mus musculus [11] = species: Mus musculus; test: Upregulation of Atrogin-1 mRNA expression in denervated C57BL/6NCrSlc mouse by RT-PCR analysis; assay type: functional
Mus musculus [12] = species: Mus musculus; test: Effect of PPARgamma mRNA expression in denervated C57BL/6NCrSlc mouse by RT-PCR analysis; assay type: functional, organism-based

Which results are given for C[C@@H]1O[C@@H](OC[C@H]2O[C@@H](Oc3cc(O)c4c(c3)O[C@H](c3ccc(O)c(O)c3)CC4=O)[C@H](O)[C@@H](O)[C@@H]2O)[C@H](O)[C@H](O)[C@H]1O [ERIOCITRIN]?
Activity (Mus musculus [1]): Active; Activity (Mus musculus [2]): inactive; Activity (Mus musculus [3]): 25.37 g; Activity (Mus musculus [4]): inactive; Activity (Mus musculus [5]): Active; Activity (Mus musculus [6]): Active; Activity (Mus musculus [7]): Active; Activity (Mus musculus [8]): Active; Activity (Mus musculus [9]): Active; Activity (Mus musculus [10]): Active; Activity (Mus musculus [11]): inactive; Activity (Mus musculus [12]): inactive
